The test system of assay [1] is Rattus norvegicus. As to the kind of experiment: Dose (ip) giving half-maximal reversal of the gamma-butyrolactone-induced increase in DOPA formation of rat striatum. It counts as functional.
The test system of assay [2] is Mus musculus. Kind of assay: Dose required for reversal of reserpine-induced depression in mice (sc).
The subject of assay [3] is Mus musculus. As to the kind of experiment: Dose required for inhibition of locomotor activity in mice (sc).
Assay [4] is described as follows: Ratio of ED50 values for the inhibition of locomotor activity to reversal of reserpine-induced depression. It counts as functional.

Molecules are shown by their SMILES.

Take `CN1CCc2cccc3c2[C@H]1Cc1ccc(O)c(O)c1-3` [APOMORPHINE]: the ED50 in assay [1] is 0.04 mg/kg; in assay [2] it was 0.096 mg/kg; in assay [3] it was 0.021 mg/kg.

Take `CCCN(CCC)C1COc2c(O)cccc2C1` (stereo unspecified): the Ratio in assay [4] was 304. Also, the ED50 in assay [1] is 0.05 mg/kg; in assay [2] it was 3.95 mg/kg; in assay [3], 0.013 mg/kg.

Turning to `CCCN(CCC)C1COc2ccc(O)cc2C1` (stereo unspecified), the Ratio in assay [4] was 79. The ED50 in assay [1] came out at 0.85 mg/kg; in assay [2], 13.4 mg/kg; in assay [3], 0.17 mg/kg.
